# Tests used:
# BBZDR/Wor rats [1] = assay: Preliminary poly I:C experiment in fully-inbred BBZDR/Wor rat line, onset of diabetes; format: in vivo; conditions: fully-inbred (>40 generations) line, 5 μg/gm body weight, 3× a week
# Protocol: (§1) During the initial development of the BBZDR/Wor strain, we performed several experiments to determine whether BBZDR/Wor animals are susceptible to other environmental triggers of diabetes. […] Lean and obese BBZDR/Wor rats were treated with either the TLR3 ligand, poly I:C, or poly I:C and KRV and the incidence of diabetes was determined. […] In contrast, 35-64% of animals treated with poly I:C+KRV became diabetic. We consistently observed a higher incidence of diabetes among lean BBZDR/Wor animals as compared to obese rats. More experiments will need to be performed to determine whether these differences are statistically significant. We recently revisited the poly I:C experiments in the now, fully-inbred (>40 generations) BBZDR/Wor rat line. […] In contrast to our previous results, we observed that 40% of the lean animals and 50% of the obese females developed hyperglycemia.
# [2] = test system: dorsal root explants and cultured neurons; conditions: application to dorsal root explants and cultured neurons; cited from earlier work
# BBDR/Wor rats = conditions: cited from earlier work
# BBZDR/Wor rats [3] = assay: Environmental induction of diabetes in BBZDR/Wor rats (during initial development of the strain); format: in vivo, rat
# Protocol: as §1
substance,measurement,setting,value
polyinosine:polycytidylic acid [Poly I:C],animals that developed hyperglycemia,BBZDR/Wor rats [1]; lean female animals,40%
same,animals that developed hyperglycemia,BBZDR/Wor rats [1]; obese females,50%
same,effect on axonal outgrowth,[2],inhibits axonal outgrowth
same,induction of hyperglycemia,"BBDR/Wor rats; low doses, poly I:C alone",do not induce hyperglycemia
same,incidence of diabetes,BBDR/Wor rats; poly I:C given just prior to KRV infection,~100%
same,% Diabetic With Treatment,BBZDR/Wor rats [3]; Lean BBZDR/Wor rats,0%
same,incidence of diabetes,BBZDR/Wor rats [3]; Lean and obese BBZDR/Wor rats together,no animals treated with poly I:C alone developed diabetes
same,% Diabetic With Treatment,BBZDR/Wor rats [3]; Obese BBZDR/Wor rats,0%
